Experimental data published in patent publication US5792775A (priority 1996, dated 1998).
pIC50, pKi: −log10 of the molar value. Entries after “also recorded” stand apart in the source; their conditions may differ. Read-outs that look alike come from different tables or passages of the source.

Key:
[1] = biological target: serotonin transporter (5HTT) (Rattus norvegicus, UniProt P31652); test: Serotonin transporter binding ([^3 H]citalopram), NOVASCREEN
Description: (§1) Serotonin (5-HTT), norepinephrine transporter (NET) and muscarinic m1 and m2 receptor binding data were provided by NOVASCREEN.

[2] = biological target: T1, muscarinic m1 receptors (Rattus norvegicus, UniProt P08482); test: biochemical; type: binding
T1 sequence (P08482 1-460): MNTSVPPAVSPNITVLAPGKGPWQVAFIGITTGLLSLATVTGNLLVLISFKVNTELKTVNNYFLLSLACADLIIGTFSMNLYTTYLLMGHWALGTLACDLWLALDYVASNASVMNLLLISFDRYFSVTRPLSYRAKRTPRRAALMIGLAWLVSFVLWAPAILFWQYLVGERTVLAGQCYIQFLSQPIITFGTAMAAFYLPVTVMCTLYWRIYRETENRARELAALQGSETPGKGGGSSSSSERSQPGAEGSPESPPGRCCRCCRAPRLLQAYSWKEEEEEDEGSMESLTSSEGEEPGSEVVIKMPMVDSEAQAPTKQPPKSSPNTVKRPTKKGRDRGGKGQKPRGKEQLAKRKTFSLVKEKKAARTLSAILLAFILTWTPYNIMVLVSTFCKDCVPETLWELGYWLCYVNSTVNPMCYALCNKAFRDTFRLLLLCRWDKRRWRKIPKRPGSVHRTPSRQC

[3] = biological target: T2, muscarinic m2 receptors (Rattus norvegicus, UniProt P10980); test: Muscarinic m2 receptor binding ([^3 H]AFDX 384), NOVASCREEN; conditions: for muscarinic m2 affinity relative to dopamine transporter affinity: in words
T2 sequence (P10980 1-466): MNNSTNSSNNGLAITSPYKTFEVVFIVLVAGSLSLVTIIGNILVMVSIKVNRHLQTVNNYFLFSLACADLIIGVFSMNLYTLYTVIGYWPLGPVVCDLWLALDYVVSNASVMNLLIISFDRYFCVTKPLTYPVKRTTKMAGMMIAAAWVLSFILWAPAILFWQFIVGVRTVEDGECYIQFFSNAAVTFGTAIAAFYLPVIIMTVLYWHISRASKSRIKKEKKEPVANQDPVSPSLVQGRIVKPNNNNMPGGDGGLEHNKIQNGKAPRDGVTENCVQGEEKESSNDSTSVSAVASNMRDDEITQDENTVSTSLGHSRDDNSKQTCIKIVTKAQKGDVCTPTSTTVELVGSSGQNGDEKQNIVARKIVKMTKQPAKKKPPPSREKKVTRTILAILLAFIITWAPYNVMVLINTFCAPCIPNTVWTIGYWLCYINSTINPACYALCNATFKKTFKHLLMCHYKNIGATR
Description: as §1

[4] = test system: dopamine uptake, rat caudate putamen; type: biochemical; conditions: for IC50: IC50 in nM; for pIC50: Table V, rat caudate putamen, read-out: [^3 H]DA Uptake Inhibition IC50
[5] = biological target: T3, dopamine transporter (DAT) (Rattus norvegicus, UniProt P23977); test: Displacement of [^3 H]WIN 35,428 binding (Dopamine Transporter Binding Assay); conditions: for Ki: Table III, displacement of [^3 H]WIN 35,428, rat caudate putamen, % error in parentheses
T3 construct: brains removed to an ice-cooled dish for dissection of the caudate putamen; from tissue; host or cells: rat caudate putamen, washed membranes of male Sprague-Dawley rats (Taconic)
T3 sequence (P23977 whole entry): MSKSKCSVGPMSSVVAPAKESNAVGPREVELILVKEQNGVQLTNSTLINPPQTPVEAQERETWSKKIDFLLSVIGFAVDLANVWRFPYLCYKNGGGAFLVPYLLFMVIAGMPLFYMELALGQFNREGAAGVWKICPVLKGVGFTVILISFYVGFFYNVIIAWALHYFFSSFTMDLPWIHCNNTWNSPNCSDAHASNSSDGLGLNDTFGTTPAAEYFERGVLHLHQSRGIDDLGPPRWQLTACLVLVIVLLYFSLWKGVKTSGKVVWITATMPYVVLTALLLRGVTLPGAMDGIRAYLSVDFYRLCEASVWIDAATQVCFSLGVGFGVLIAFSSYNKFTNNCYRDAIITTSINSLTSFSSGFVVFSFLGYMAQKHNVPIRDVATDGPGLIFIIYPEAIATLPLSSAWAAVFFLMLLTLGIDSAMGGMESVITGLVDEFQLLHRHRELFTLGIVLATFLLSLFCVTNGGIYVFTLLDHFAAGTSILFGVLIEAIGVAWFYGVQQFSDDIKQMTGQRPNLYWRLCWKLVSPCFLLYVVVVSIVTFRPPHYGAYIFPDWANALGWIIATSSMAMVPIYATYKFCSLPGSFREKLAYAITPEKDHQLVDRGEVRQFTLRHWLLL

[6] = biological target: norepinephrine transporter (NET) (Rattus norvegicus, UniProt Q63380); test: biochemical; type: binding
Sequence of norepinephrine transporter (NET) (Q63380 1-617): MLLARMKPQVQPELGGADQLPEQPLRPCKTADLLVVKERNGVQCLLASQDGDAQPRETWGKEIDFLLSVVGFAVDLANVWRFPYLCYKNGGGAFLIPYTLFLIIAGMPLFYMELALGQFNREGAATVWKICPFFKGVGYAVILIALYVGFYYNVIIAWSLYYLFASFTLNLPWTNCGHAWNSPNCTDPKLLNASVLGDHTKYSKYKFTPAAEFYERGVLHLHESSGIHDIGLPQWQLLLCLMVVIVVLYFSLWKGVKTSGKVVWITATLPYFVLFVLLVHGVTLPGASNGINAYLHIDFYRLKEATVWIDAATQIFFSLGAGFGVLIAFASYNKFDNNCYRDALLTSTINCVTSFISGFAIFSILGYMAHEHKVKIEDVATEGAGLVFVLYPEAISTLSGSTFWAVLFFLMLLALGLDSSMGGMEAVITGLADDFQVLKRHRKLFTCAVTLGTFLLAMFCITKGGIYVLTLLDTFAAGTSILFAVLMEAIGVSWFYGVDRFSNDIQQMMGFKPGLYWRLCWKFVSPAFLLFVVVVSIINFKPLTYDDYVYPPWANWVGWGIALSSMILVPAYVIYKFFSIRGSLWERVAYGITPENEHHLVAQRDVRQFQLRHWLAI

[7] = Table IV, head prints no unit, read-out: [^3 H]DAU (inhibition of [^3 H]-Dopamine Uptake)
[8] = read-out: NET, % Inhibition at 10 μM

Sequence of serotonin transporter (5HTT) (P31652 whole entry): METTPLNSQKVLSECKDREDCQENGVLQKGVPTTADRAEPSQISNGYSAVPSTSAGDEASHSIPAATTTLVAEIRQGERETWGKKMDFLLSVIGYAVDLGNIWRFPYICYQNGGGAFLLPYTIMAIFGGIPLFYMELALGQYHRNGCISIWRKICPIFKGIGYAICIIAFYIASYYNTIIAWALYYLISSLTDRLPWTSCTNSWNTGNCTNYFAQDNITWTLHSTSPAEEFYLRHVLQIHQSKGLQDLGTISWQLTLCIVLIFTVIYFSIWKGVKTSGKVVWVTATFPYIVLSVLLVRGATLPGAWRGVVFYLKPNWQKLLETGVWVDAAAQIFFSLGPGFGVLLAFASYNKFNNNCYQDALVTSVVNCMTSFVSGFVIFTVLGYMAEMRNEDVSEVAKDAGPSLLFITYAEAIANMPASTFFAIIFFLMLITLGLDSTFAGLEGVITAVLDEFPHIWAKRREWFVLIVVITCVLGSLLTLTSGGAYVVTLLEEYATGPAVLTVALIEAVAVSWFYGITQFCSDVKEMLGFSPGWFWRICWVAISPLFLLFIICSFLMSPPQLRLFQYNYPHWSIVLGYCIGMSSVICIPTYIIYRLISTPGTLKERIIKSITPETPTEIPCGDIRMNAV

SMILES | IC50 [4, 7] [nM] | inhibition at 10 µM ([6]; read-out: NET (% I@10 μM)) [%] | inhibition at 10 µM ([1]; read-out: 5HTT (% I@10 μM)) [%] | pKi ([2]; Table III, read-out: m1, Ki) | pKi ([3]; Table III) | pIC50 [4] | further results
Fc1ccc(C(O[C@H]2C[C@H]3CC[C@@H](C2)N3Cc2ccccc2)c2ccc(F)cc2)cc1 [JHW 005] | 285 | – | – | – | – | – | pKi [1]: 5.74; pKi ([2]; Table IV, read-out: m1, Ki): 5.60; muscarinic m1 affinity relative to dopamine transporter affinity ([2]; in words): significantly lower binding affinities at the muscarinic m1 and m2 receptors as compared to binding affinities at the dopamine transporter; pKi ([3]; Table IV): 6.56; muscarinic m2 affinity relative to dopamine transporter affinity [3]: significantly lower binding affinities at the muscarinic m1 and m2 receptors as compared to binding affinities at the dopamine transporter
Cc1ccc(C(O[C@H]2C[C@H]3CC[C@@H](C2)N3C)c2ccccc2)cc1 (stereo partly drawn) [Compound 7p] | – | 31.8 | 35.4 | 8.57 | 7.43 | 6.29 | Ki [5]: 187 nM
CN1[C@@H]2CC[C@H]1C[C@@H](OC(c1ccccc1)c1ccc(Cl)c(Cl)c1)C2 (stereo partly drawn) [Compound 7k] | – | 56.5 | 66.2 | 7.90 | 6.85 | 7.33 | Ki [5]: 22.1 nM; Ki ([6]; read-out: NET Ki value in nM (bracketed), Table III, footnote d): > 4870 nM; Ki ([1]; Table III, footnote d, read-out: 5HTT Ki value in nM (bracketed)): > 1790 nM
Cc1ccc(C(O[C@H]2C[C@H]3CC[C@@H](C2)N3C)c2ccc(C)cc2)cc1 [Compound 7o] | – | 35.1 | 35.5 | 7.33 | 6.15 | 5.60 | Ki [5]: 420 nM
COc1ccc(C(O[C@H]2C[C@H]3CC[C@@H](C2)N3C)c2ccccc2)cc1 (stereo partly drawn) [Compound 7d, 4'-methoxy-3α-(diphenylmethoxy)tropane] | – | 30.9 | 30.5 | 8.38 | 7.72 | 6.33 | –
CN1[C@@H]2CC[C@H]1C[C@@H](OC(c1ccc(Cl)cc1)c1ccc(Cl)cc1)C2 [Compound 7b] | – | 43 | – | – | 5.83 | – | pKi [6]: < 5.22
Fc1ccc(C(O[C@H]2C[C@H]3CC[C@@H](C2)N3CC2CC2)c2ccc(F)cc2)cc1 [JHW 013] | 180 | – | – | – | – | – | pKi [6]: 6.93; pKi [1]: 7.27; pKi ([2]; Table IV, read-out: m1, Ki): 8.11
Fc1ccc(C(O[C@H]2C[C@H]3CC[C@@H](C2)N3CCCc2ccccc2)c2ccc(F)cc2)cc1 [JHW 010] | 227 | – | – | – | – | – | pKi [2]: 6.56; pKi ([3]; Table IV): 6.30
CN1[C@@H]2CC[C@H]1C[C@@H](OC(c1ccccc1)c1ccc(C(F)(F)F)cc1)C2 (stereo partly drawn) [Compound 7m] | – | 34.6 | 49.1 | 8.27 | 5.82 | 5.67 | Ki [5]: 635 nM; selectivity for m1 over m2 sites ([2]; m1 vs. m2): ~300 fold
CN1[C@@H]2CC[C@H]1C[C@@H](OC(c1ccccc1)c1ccc(C(C)(C)C)cc1)C2 (stereo partly drawn) [Compound 7n] | – | 37.6 | 24.7 | 6.83 | – | 5.35 | inhibition at 10 µM ([3]; Table III footnote b, read-out: m2, % Inhibition of radiolabeled ligand binding): 54%
COC(=O)[C@H]1[C@@H](OC(=O)c2ccccc2)C[C@@H]2CC[C@H]1N2C [cocaine, reference compound] | – | – | – | – | – | – | mode of displacement of [^3 H]WIN 35,428 binding ([5]; monophasic vs. biphasic): biphasic displacement; also recorded: revealed two binding sites
Fc1ccc(C(O[C@H]2C[C@H]3CC[C@@H](C2)N3CC=Cc2ccccc2)c2ccc(F)cc2)cc1 [AHN 2-006] | 184 | – | – | – | – | – | pKi [6]: 6.24; pKi [1]: 5.83; pKi [2]: 6.62; pKi ([3]; Table IV): 5.80
CN1[C@@H]2CC[C@H]1C[C@@H](OC(c1ccccc1)c1ccc(F)cc1)C2 (stereo partly drawn) [Compound 7j] | – | 37.9 | 35.2 | 8.96 | 7.82 | – | –
Fc1ccc(CN2[C@@H]3CC[C@H]2C[C@@H](OC(c2ccc(F)cc2)c2ccc(F)cc2)C3)cc1 [JKW 009] | 204 | – | – | – | – | – | inhibition at 10 µM [6, 8]: 60%; pKi [1]: 7.27; pKi [2]: 9.35
COC(=O)[C@H]1[C@@H](c2ccc(F)cc2)C[C@@H]2CC[C@H]1N2C [[^3 H]WIN 35,428, 2β-carbomethoxy-3β-(4-fluorophenyl)tropane, reference compound] | – | – | – | – | – | – | Bmax, high affinity component of [^3 H]WIN 35,428 binding ([5]; high affinity component, LIGAND analysis): 445±338 fmol/mg protein; Bmax, low affinity component of [^3 H]WIN 35,428 binding ([5]; low affinity component, LIGAND analysis): 1995±559 fmol/mg protein
C=CCN1[C@@H]2CC[C@H]1C[C@@H](OC(c1ccc(F)cc1)c1ccc(F)cc1)C2 [AHN 2-005, N-allyl-4',4"-difluorobenztropine] | 14 | – | – | – | – | – | inhibition at 10 µM [6, 8]: 22.1%; pKi [1]: 5.71; pKi ([2]; Table IV, read-out: m1, Ki): 7.05; pKi ([3]; Table IV): 6.60
COc1ccc(C(O[C@H]2C[C@H]3CC[C@@H](C2)N3C)c2ccc(OC)cc2)cc1 [Compound 7e] | – | 34 | 31 | 7.40 | 6.00 | 5.54 | –
CN1[C@@H]2CC[C@H]1C[C@@H](OC(c1ccccc1)c1ccc(Cl)cc1)C2 (stereo partly drawn) [Compound 7a, 4'-Cl-3α-(diphenylmethoxy)tropane] | – | 32 | 34 | – | – | 6.94 | –
O=CN1[C@@H]2CC[C@H]1C[C@@H](OC(c1ccc(F)cc1)c1ccc(F)cc1)C2 [AHN 2-032] | 5380 | – | – | – | – | – | inhibition at 10 µM [6, 8]: 29%; inhibition at 10 µM ([1]; Table IV footnote b, 10 μM, read-out: 5HHT, % Inhibition at 10 μM): 1.6%; inhibition at 10 µM ([2]; Table IV footnote b, 10 μM): 54%; inhibition at 10 µM ([3]; Table IV footnote b, read-out: m2, % Inhibition at 10 μM): 62%
Fc1ccc(C(O[C@H]2C[C@H]3CC[C@@H](C2)N3)c2ccc(F)cc2)cc1 [AHN 2-003, N-nor-4',4"-difluorobenztropine] | 10 | – | – | – | – | – | pKi [6]: < 5.10; pKi ([2]; Table IV, read-out: m1, Ki): 7.04; pKi ([3]; Table IV): 6.21
CCCCN1[C@@H]2CC[C@H]1C[C@@H](OC(c1ccc(F)cc1)c1ccc(F)cc1)C2 [JHW 007] | – | – | – | – | – | – | pKi [2]: 6.28; muscarinic m1 affinity relative to dopamine transporter affinity [2]: significantly lower binding affinities at the muscarinic m1 and m2 receptors as compared to binding affinities at the dopamine transporter; pKi ([3]; Table IV): 6.51; muscarinic m2 affinity relative to dopamine transporter affinity [3]: significantly lower binding affinities at the muscarinic m1 and m2 receptors as compared to binding affinities at the dopamine transporter; IC50 ([4]; Table IV footnote d: biphasic inhibition curve, read-out: [^3 H]DAU (inhibition of [^3 H]-Dopamine Uptake), biphasic inhibition curve): 371 nM
